Laboratory results as given in patent US8101389B2, “Bacterial glutamine synthetases and methods of use” (Athenix Corp, priority 2006, dated 2012).

What was measured:
[1] = test system: E. coli cells with AGS1 variant AGS1m20, F81S, P185S, H212M, V214H, G218S, I303N, SEQ ID NO:40; assay: growth of E. coli on glufosinate plates, ags1m20; format: cell-based
Experimental: (§1) Clones expressing AGS1m17, AGS1m18, AGS1m19, or AGS1m20 were all found to be able to grow on plates containing 375 mM glufosinate, whereas no growth of clones expressing AGS1m16 was observed on plates containing 375 mM glufosinate.

[2] = test system: E. coli DH5α cells with TKH2; assay: growth of DH5α with TKH2 on M63 minimal plates with glufosinate; format: cell-based; details: 20 mM glufosinate
Experimental: (§2) To obtain the gene(s) responsible for the strain's resistance to glufosinate, a small insert plasmid genomic library was prepared from strain ATX 20345. Genomic DNA was extracted from a fresh, overnight LB culture using SDS, proteinase K cell lysis followed by CTAB/NaCl, phenol-chloroform extractions. Partial digests were performed on the genomic DNA using 0.1 units Sau3A I at 37° C. for 30 minutes followed by the addition of EDTA and incubation at 65° C. for 20 minutes to halt the reaction. Resultant DNA was approximately 4-12 kb in size. The DNA was gel purified, treated with T4 polynucletide kinase, then ligated into BamH I digested pUC18 vector. Ligations were transformed into DH5a and plated directly on M63 minimal media plates containing 20 mM glufosinate, 100 μg/ml carbenicillin, and 0.1 mM IPTG. After several days, 4 colonies had appeared, tentatively named TKH1-4. They were grown up and plasmid DNA was isolated and analyzed by digestion with EcoR I+ Hind III, and Pst I/Sac Ito compare inserts. Though all four clones contained inserts, TKH2 and TKH3 were identical by restriction digest analysis, and both contained inserts of approximately 4.9 kb.
(§3) To reconfirm that TKH2 and TKH3 confer resistance to 20 mM glufosinate, the purified plasmids were retransformed into DH5α cells. pUC18 was retransformed as a negative control. […]

[3] = target: Serratia marcescens glutamine synthetase AGS1 variant AGS1m21, N160S, G167R, V214M, SEQ ID NO:42 (Serratia marcescens, UniProt A0A0F6KS08, G167R/N160S/V214M); assay: enzymatic assay, kinetics of AGS1m21; format: biochemical
Chain of Serratia marcescens glutamine synthetase AGS1 variant AGS1m21, N160S, G167R, V214M, SEQ ID NO:42 (A0A0F6KS08 whole entry N160S/G167R/V214M): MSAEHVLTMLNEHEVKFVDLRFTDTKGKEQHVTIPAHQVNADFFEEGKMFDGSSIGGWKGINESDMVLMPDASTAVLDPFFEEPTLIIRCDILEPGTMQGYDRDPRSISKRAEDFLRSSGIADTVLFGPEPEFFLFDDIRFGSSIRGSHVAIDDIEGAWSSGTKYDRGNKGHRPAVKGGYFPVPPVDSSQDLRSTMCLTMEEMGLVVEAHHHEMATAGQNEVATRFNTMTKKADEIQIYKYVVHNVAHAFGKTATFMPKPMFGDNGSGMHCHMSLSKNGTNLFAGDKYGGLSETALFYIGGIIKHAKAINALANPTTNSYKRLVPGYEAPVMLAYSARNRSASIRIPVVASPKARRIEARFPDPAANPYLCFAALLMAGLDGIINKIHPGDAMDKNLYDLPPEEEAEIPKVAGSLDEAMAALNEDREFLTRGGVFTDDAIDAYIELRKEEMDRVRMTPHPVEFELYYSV
From the text: (§4) ags1m21 (SEQ ID NO:41) encodes the AGS1m21 protein (SEQ ID NO:42). AGS1m21 is a variant of AGS1 that contains a similar amino acid change identified in other variants (V214M), as well as two novel mutations (N160S and G167R). This enzyme was expressed in E. coli, purified, and the kinetic values Km(glutamate) and Ki(glufosinate) of the variant measured by enzymatic assay.

[4] = test system: E. coli DH5α cells with TKH3; assay: growth of DH5α with TKH3 on M63 minimal plates with glufosinate; format: cell-based; details: 20 mM glufosinate
Experimental: as §2, §3

[5] = test system: E. coli cells with AGS1 variant AGS1m19, F81S, P185S, H212S, V214A, G218S, I303N, SEQ ID NO:38; assay: growth of E. coli on glufosinate plates, ags1m19; format: cell-based
Experimental: as §1

[6] = test system: E. coli cells with AGS1 variant AGS1m7 (pAX3431), G168C, V214M, K395R, SEQ ID NO:14; assay: growth of E. coli on glufosinate plates, ags1m7; format: cell-based; details: 2, 10, 20, 50, and 100 mM; DH5a; Clone 10
Experimental: Mutants of the bacterial glutamine synthetase gene ags1 (SEQ ID NO:1) were created by error-prone mutagenesis using the GENEMORPH® Random Mutagenesis kit, and also using oligo-directed mutagenesis as known in the art. However, many methods are available for creating libraries of mutants. The resulting mutants were cloned into a pUC19 vector, electroporated into either XL-1 or DH5 alpha E. coli cells, and selected for growth on M63+ agar media containing antibiotic and 2, 10, or 20 mM glufosinate. Twenty-two clones were identified as growing on 20 mM glufosinate, and picked for further analysis.

[7] = target: T1, Serratia marcescens ATX 20345 glutamine synthetase AGS1, wild type, SEQ ID NO:2 (Serratia marcescens, UniProt A0A0F6KS08); assay: enzymatic assay, kinetics of wild-type AGS1; format: biochemical
T1 construct: gene cloned as pAX685; dodecamer from known biology
T1 sequence (A0A0F6KS08 entry or part of it): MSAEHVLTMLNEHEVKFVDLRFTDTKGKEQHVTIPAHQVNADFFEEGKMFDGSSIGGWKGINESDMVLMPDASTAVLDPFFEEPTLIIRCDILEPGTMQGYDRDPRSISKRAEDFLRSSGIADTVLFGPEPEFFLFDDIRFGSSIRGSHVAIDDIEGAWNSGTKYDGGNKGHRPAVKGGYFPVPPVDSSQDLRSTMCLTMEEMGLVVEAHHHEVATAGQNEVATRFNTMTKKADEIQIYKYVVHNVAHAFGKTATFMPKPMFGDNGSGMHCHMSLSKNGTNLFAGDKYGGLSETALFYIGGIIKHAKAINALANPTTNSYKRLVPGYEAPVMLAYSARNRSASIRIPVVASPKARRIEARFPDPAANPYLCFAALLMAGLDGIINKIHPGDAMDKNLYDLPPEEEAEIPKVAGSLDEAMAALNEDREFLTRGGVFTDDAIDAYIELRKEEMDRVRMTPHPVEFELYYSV
From the text: ags1m1 (pAX3421) and ags1m2 (pAX3422) were subcloned into E. coli expression vector pRSF1B (Invitrogen) so as to create an N-terminus encoding a 6Xhis tag, purified and characterized kinetically.
as §4
(§5) The unmodified enzyme (AGS1) was compared to AGS1(AD-) and AGS1m17(AD-) by carrying out enzymatic assays on both enzymes following purification from E. coli. A glutamine synthetase enzyme from E. coli (GlnA) was also tested.

[8] = target: Serratia marcescens glutamine synthetase AGS1 variant AGS1(AD-), tyrosine 398 to phenylalanine, SEQ ID NO:44 (Serratia marcescens, UniProt A0A0F6KS08, Y398F); assay: enzymatic assay, kinetics of AGS1(AD-); format: biochemical
Chain of Serratia marcescens glutamine synthetase AGS1 variant AGS1(AD-), tyrosine 398 to phenylalanine, SEQ ID NO:44 (A0A0F6KS08 whole entry Y398F): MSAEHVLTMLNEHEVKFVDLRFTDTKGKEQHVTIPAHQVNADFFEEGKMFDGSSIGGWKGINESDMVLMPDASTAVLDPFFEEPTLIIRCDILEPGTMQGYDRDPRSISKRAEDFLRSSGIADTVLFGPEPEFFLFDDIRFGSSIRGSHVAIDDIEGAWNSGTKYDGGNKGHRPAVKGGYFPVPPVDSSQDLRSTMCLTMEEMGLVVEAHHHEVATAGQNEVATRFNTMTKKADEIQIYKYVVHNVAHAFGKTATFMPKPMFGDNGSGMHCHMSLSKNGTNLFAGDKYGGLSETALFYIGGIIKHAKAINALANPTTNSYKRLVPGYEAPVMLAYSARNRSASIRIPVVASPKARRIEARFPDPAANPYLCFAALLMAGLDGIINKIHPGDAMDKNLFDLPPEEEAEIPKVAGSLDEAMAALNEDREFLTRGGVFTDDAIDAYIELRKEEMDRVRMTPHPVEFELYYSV
Experimental: ags1(ad-) (SEQ ID NO:43) encoding the AGS1(AD-) protein (SEQ ID NO:44), is a variant of ags1 in which the putative adenylylation site has been removed by mutating the tyrosine at position 398 of AGS1 to a phenylalanine by site directed mutagenesis.
as §5

[9] = Table 5, Km glutamate, Ki glufosinate

**Q.** What does the source list for `CP(=O)(O)CCC(N)C(=O)O` (centres unmarked) [glufosinate]?
**A.** growth on plates containing 375 mM glufosinate [1]: able to grow; growth in the presence of glufosinate [2]: grew in the presence of glufosinate; Ki [3]: 2000 µM; growth in the presence of glufosinate [4]: grew in the presence of glufosinate; growth on plates containing 375 mM glufosinate [5]: able to grow; growth on glufosinate minimal M63+ agar media [6]: shown to grow; Ki [7]: 13 µM; inhibition by glufosinate ([7]; 100 uM glufosinate): completely inhibited; (Kcat*Ki)/Km [7, 9]: 0.32; Ki [8]: 13 µM; (Kcat*Ki)/Km [8, 9]: 12.59
